Laboratory results: patent US7241791B2, “Substituted 4-(indazol-3-yl)phenols” (Wyeth, priority 2002, dated 2007)

Experiments:
human ERα [1] = target: T1, human ERα (Homo sapiens, UniProt P03372); assay: Creatine kinase expression (ER/CK) in Ad5-wt-hERα infected HAECT-1 cells; settings: for ER/CK % E2: efficacy relative to the maximal stimulation observed with E2
T1 sequence (P03372 1-595): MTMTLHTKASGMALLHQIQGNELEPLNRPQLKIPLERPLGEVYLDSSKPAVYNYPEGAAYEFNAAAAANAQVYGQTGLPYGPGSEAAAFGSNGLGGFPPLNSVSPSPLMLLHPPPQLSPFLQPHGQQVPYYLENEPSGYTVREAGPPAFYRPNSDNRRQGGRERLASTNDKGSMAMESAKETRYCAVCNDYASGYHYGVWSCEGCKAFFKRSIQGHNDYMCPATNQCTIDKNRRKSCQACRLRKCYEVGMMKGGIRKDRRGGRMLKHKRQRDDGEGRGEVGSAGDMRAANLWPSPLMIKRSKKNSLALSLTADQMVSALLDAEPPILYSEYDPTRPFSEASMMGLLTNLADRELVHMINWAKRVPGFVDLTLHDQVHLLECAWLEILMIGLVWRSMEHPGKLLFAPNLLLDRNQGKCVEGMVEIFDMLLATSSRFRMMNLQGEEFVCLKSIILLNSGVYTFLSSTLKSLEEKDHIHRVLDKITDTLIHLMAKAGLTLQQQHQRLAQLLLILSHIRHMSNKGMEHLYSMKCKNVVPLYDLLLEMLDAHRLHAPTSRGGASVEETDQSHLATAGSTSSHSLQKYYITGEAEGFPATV

human ERα [2] = target: T1, human ERα; assay: NF-κB luciferase reporter (ER/NF-KB-luc) in Ad5-wt-hERα infected HAECT-1 cells; settings: for IC50: ER/NF-KB-luc IC50, Ad5-wt-ER infected HAECT-1 cells, IL-1β; for Emax: HAECT1, read-out: ER/NF-KB-luc % E2, efficacy relative to the maximal inhibition observed with E2
human ERα [3] = target: T1, human ERα; assay: IL-6 expression (ELISA, ER/IL-6) in Ad5-wt-hERα infected HAECT-1 cells; settings: for ER/IL-6 % E2: efficacy relative to the maximal inhibition observed with E2

Row | EC50 (human ERα [1]) | ER/CK % E2 (human ERα [1]) | IC50 (human ERα [2]) | Emax (human ERα [2]) | IC50 (human ERα [3]) | ER/IL-6 % E2 (human ERα [3]) | SMILES
1 | 0.114 µM | 26 % E2 | 0.06 µM | 54% | 2.32 µM | 91 % E2 | COc1ccc(-n2nc(-c3ccc(O)cc3O)c3ccc(O)cc32)cc1 [Example 11, 4-[6-hydroxy-1-(4-methoxyphenyl)-1H-indazol-3-yl]benzene-1,3-diol]
2 | 0.722 µM | 36 % E2 | 0.183 µM | 67% | 0.329 µM | 40 % E2 | CCCCn1nc(-c2ccc(O)cc2)c2ccccc21 [Example 139, 4-(1-butyl-1H-indazol-3-yl)phenol]
3 | 0.364 µM | 38 % E2 | 0.065 µM | 69% | 0.065 µM | 65 % E2 | Cn1nc(-c2ccc(O)cc2)c2cccc(C(F)(F)F)c21 [Example 169, 4-[1-methyl-7-(trifluoromethyl)-1H-indazol-3-yl]phenol]
4 | 0.439 µM | 48 % E2 | 0.125 µM | 66% | 0.097 µM | 60 % E2 | Oc1ccc(-c2nn(Cc3ccccc3)c3c(F)cccc23)cc1 [Example 145, 4-(1-benzyl-7-fluoro-1H-indazol-3-yl)phenol]
5 | 0.387 µM | 52 % E2 | 0.134 µM | 85% | 0.122 µM | 52 % E2 | Cn1nc(-c2ccc(O)cc2)c2cccc(Cl)c21 [Example 126, 4-(7-chloro-1-methyl-1H-indazol-3-yl)phenol]
6 | 0.527 µM | 30 % E2 | 0.319 µM | 67% | 0.115 µM | 49 % E2 | Oc1ccc(-c2nn(Cc3ccccc3)c3c(Cl)cccc23)c(O)c1 [Example 149, 4-(1-benzyl-7-chloro-1H-indazol-3-yl)benzene-1,3-diol]
7 | 0.828 µM | 47 % E2 | 0.133 µM | 97% | 0.601 µM | 83 % E2 | Oc1ccc(-c2nn(-c3ccc(OC(F)(F)F)cc3)c3cc(O)ccc23)c(O)c1 [Example 13, 4-{6-hydroxy-1-[4-(trifluoromethoxy)phenyl]-1H-indazol-3-yl}benzene-1,3-diol]
8 | 0.815 µM | 65 % E2 | 0.195 µM | 82% | 0.38 µM | 72 % E2 | Oc1ccc(-c2n[nH]c3cc(Cl)c(F)cc23)cc1 [Example 131, 4-(6-chloro-5-fluoro-1H-indazol-3-yl)phenol]
9 | 1.2 µM | 58 % E2 | 0.208 µM | 61% | 7.61 µM | 73 % E2 | COc1ccccc1-n1nc(-c2ccc(O)cc2O)c2ccc(O)cc21 [Example 12, 4-[6-hydroxy-1-(2-methoxyphenyl)-1H-indazol-3-yl]benzene-1,3-diol]
10 | 1.83 µM | 54 % E2 | 0.09 µM | 92% | 0.246 µM | 77 % E2 | Oc1ccc(-c2nn(-c3ccc(Br)cc3)c3cc(O)ccc23)c(O)c1 [Example 7, 4-[1-(4-bromophenyl)-6-hydroxy-1H-indazol-3-yl]benzene-1,3-di I]
11 | 0.438 µM | 45 % E2 | 0.095 µM | 79% | 0.081 µM | 58 % E2 | Oc1ccc(-c2nn(-c3ccccc3Cl)c3cc(O)ccc23)c(O)c1 [Example 16, 4-[1-(2-chlorophenyl)-6-hydroxy-1H-indazol-3-yl]benzene-1,3-diol]
